These are literature values, as cited in patent publication US11896701B2, “Method for dyeing keratin material, comprising the use of an organic C1-C6 alkoxy silane and tannic acid” (Henkel AG & Co. KGaA, priority 2019, dated 2024).

Molecules are shown by their SMILES. In brackets after ≈: the same amount, converted by molar mass.

For the data set the following is noted: 25° C.

As for `O=S(=O)(O)c1ccc(N=Nc2c(O)ccc3ccccc23)cc1` [Acid Orange 7, 4-[(2-hydroxy-1-naphthyl)azo]benzenesulfonate], the solubility in water result was “more than 7 g/L”.
For the compound `Nc1cc(S(=O)(=O)O)cc2cc(S(=O)(=O)O)c(N=Nc3ccccc3)c(O)c12` [Acid Red 33, 5-amino-4-hydroxy-3-(phenylazo)-naphthalene-2,7-disulphonate], the solubility in water is 2500 µg/mL (≈ 5.9 mM).
In the case of `O=[N+]([O-])c1cc([N+](=O)[O-])c2ccc(S(=O)(=O)O)cc2c1O` [Acid Yellow 9, 8-hydroxy-5,7-dinitro-2-naphthalenesulfonic acid], the solubility in water entry was “above 40 g/L”.
As for `O=C(O)C1=NN(c2ccc(S(=O)(=O)O)cc2)C(=O)C1N=Nc1ccc(S(=O)(=O)O)cc1` (stereo not shown) [Acid Yellow 23, 4,5-dihydro-5-oxo-1-(4-sulfophenyl)-4-((4-sulfophenyl)azo)-1H-pyrazole-3-carboxylic acid], the “solubility in water (in words)” value is reported as “readily soluble in water”.
